What was measured:
AMPA = test: AMPA-induced spreading depression of chick retina; conditions: 20 μM
Protocol: The AMPA antagonistic effect of the compounds was also tested on spreading depression of chick retina (Sheardown, M. J.: Brain Res., 1993, 607, 189) in a concentration of 20 μM.

[1] = system: scopolamine-induced memory-deficit in rats; test: Passive avoidance test, scopolamine-induced memory deficit in rats; format: in vivo, rat; conditions: oral dose 50 mg/kg
Protocol: The memory-enhancing effect of the compounds according to the invention was measured by counter-balancing the scopolamine-induced memory-deficit in rats, with oral doses of 50 mg/kg, in the passive avoidance test published by Cumin, R. et al. [Psychopharmacology, 78, 104 (1982)].

Structure (SMILES) | Antagonistic effect on AMPA-induced spreading depression (%) (AMPA) | Memory improvement compared to amnesic control (%) [1] [%]
Cn1ncc2c(c1=O)SCCNC2C(=O)c1ccccc1 (stereo not shown) [Example 3, 5-Benzoyl-8-methyl-2,3,4,5-tetrahydro-9(8H)-pyridazino[4,5-b][1,5]thiazepinone] | 10 | 
Cn1ncc2c(c1=O)OCCNC2Cc1ccccc1 (stereo not shown) [Example 4, 5-Benzyl-8-methyl-2,3,4,5-tetrahydro-9(8H)-pyridazino[4,5-b][1,5]oxazepinone] | 17 | 
O=c1c2c(cnn1CC=Cc1ccccc1)N(Cc1ccccc1)CCCO2 [Example 7, 5-Benzyl-8-cynnamyl-2,3,4,5-tetrahydro-9(8H)-pyridazino[4,5-b][1,5]oxazepinone] | 16 | 250
Cn1ncc2c(c1=O)SCCNC2Cc1ccccc1 (stereo not shown) [Example 11, 5-Benzyl-8-methyl-2,3,4,5-tetrahydro-9(8H)-pyridazino[4,5-b][1,5]thiazepinone] | 28 | 
Cn1ncc2c(c1=O)SCCNC2Cc1ccc(Cl)cc1 (stereo not shown) [Example 12, 5-(4-Chlorobenzyl)-8-methyl-2,3,4,5-tetrahydro-9(8H)-pyridazino[4,5-b]-[1,5]thiazepinone] | 32 | 
O=c1c2c(cnn1-c1ccccc1)C(Cc1ccccc1)NCCS2 (stereo not shown) [Example 13, 5-Benzyl-8-phenyl-2,3,4,5-tetrahydro-9(8H)-pyridazino[4,5-b]-[1,5]thiazepinone] | 48 | 

From US6602865B1, “Pyridazino(4,5-b)(1,5)oxazepinone, -thiazepinone and -diazepinone compounds” (IVAX Drug Research Institute, Ltd., priority 1998, dated 2003)
